According to patent US12059425B2, “Heterocyclic compounds and uses thereof” (Kumquat Biosciences Inc., priority 2022, dated 2024):

Key:
SW620 cells = test: Ras cellular assay, cell proliferation SW620; assay type: cell-based; settings: Homo sapiens, SW-620
Text: For example, this assay can be also used to assess selective growth inhibition of a mutant Ras protein relative to a wildtype, or relative to a different mutant Ras protein.

K-Ras G12S = target: T1, K-Ras G12S (Homo sapiens, UniProt P01116, G12S); test: PPI-HTRF assay, K-Ras G12S / SOS1 interaction; assay type: biochemical; settings: read-out: PPI-HTRF-5 nM (K-Ras G12S IC50)
T1 construct: made in house; host or cells: E. coli, e.g. BL21 (DE3)
T1 sequence (P01116 1-188 isoform P01116-2 G12S): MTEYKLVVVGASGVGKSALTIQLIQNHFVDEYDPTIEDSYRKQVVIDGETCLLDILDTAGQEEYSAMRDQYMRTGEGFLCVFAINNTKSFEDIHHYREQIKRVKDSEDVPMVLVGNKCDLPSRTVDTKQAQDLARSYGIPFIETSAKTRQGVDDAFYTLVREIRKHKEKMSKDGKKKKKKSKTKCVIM
In short: (§1)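 Compound in DMSO is dispensed first, then GST-K-Ras plus anti-GST-Eu(K), then His-hSOS1 plus anti-6His-XL665. Plates incubate about 10 min or longer before HTRF measurement at 620 and 665 nm. IC50 values are derived from the emission ratio for each K-Ras variant.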

wildtype K-Ras = target: T2, wildtype K-Ras (Homo sapiens, UniProt P01116); test: PPI-HTRF assay, wildtype K-Ras / SOS1 interaction; assay type: biochemical; settings: HTRF, K-Ras wt; read-out: PPI-HTRF-5 nM (K-Ras wt IC50)
T2 construct: made in house; host or cells: E. coli, e.g. BL21 (DE3)
T2 sequence (P01116 1-188 isoform P01116-2): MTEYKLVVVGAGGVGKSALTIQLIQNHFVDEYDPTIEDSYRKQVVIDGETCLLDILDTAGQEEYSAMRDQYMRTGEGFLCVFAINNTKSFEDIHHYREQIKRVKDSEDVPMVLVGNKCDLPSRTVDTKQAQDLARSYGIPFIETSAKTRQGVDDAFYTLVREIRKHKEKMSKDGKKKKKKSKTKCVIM
In short: as §1

K-Ras G12D = target: T3, K-Ras G12D (Homo sapiens, UniProt P01116, G12D); test: PPI-HTRF assay, K-Ras G12D / SOS1 interaction; assay type: biochemical; settings: HTRF, K-Ras G12D; read-out: PPI-HTRF-5 nM (K-Ras G12D IC50)
T3 construct: made in house; host or cells: E. coli, e.g. BL21 (DE3)
T3 sequence (P01116 1-188 isoform P01116-2 G12D): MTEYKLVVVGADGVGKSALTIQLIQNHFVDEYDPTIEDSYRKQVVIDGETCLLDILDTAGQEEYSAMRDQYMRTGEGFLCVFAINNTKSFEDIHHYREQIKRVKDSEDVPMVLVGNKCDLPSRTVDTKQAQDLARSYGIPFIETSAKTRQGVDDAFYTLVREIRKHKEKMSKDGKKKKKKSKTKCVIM
In short: as §1

A549 cells = test: Ras cellular assay, cell proliferation A549; assay type: cell-based; settings: Homo sapiens
In short: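 G12S-mutant A549 cells (800/well) in RPMI-1640 plus 10% heat-inactivated FBS, standard or ultra-low attachment 384-well plates, dosed the day after plating with a 10-point 3-fold series. Viability by CellTiter-Glo luminescence about 6 days later; IC50 from four-parameter fit.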

GP2D cells = test: Ras cellular assay, cell proliferation GP2D; assay type: cell-based
In short: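 Growth inhibition read by CellTiter-Glo luminescence roughly 5 days after compound addition, which followed overnight plating of G12D-mutant GP2D cells (e.g., 800 per well). Compounds were tested as a serial dilution (e.g., 9 points, 3-fold), with IC50 fitted by four-parameter model.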

K-Ras G12V = target: T4, K-Ras G12V (Homo sapiens, UniProt P01116, G12V); test: PPI-HTRF assay, K-Ras G12V / SOS1 interaction; assay type: biochemical; settings: HTRF, K-Ras G12V; read-out: PPI-HTRF-5 nM (K-Ras G12V IC50)
T4 construct: made in house; host or cells: E. coli, e.g. BL21 (DE3)
T4 sequence (P01116 1-188 isoform P01116-2 G12V): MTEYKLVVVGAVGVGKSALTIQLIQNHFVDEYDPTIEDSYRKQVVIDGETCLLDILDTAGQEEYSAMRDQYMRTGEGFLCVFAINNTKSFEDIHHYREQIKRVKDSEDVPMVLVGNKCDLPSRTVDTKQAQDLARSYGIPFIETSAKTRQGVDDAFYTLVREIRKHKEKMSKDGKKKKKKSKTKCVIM
In short: as §1

CN1c2nc(OC[C@@]34CCCN3C[C@H](F)C4)nc3c(F)c(-c4ccc(F)c5sc(N)c(C#N)c45)c(Cl)c(c23)OCC2CN(C(=O)[C@@H]3N[C@H]3C3CC3)CC21 (stereo partly drawn) [compound 146, 2-amino-4-(6-chloro-10-((2R,3S)-3-cyclopropylaziridine-2-carbonyl)-4-fluoro-2-(((2R,7aS)-2-fluorotetrahydro-1H-pyrrolizin-7a(5H)-yl)methoxy)-12-methyl-8a,9,10,11,11a,12-hexahydro-8H-pyrrolo[3′,4′:6,7][1,5]oxazocino[4,3,2-de]quinazolin-5-yl)-7-fluorobenzo[b]thiophene-3-carbonitrile]
IC50 (SW620 cells): < 5 µM
IC50 (K-Ras G12S): < 5 µM
IC50 (wildtype K-Ras): < 5 µM
IC50 (K-Ras G12D): < 5 µM
IC50 (A549 cells): > 5 µM
IC50 (GP2D cells): < 5 µM
IC50 (K-Ras G12V): < 5 µM

N#Cc1c(N)sc2c(F)ccc(-c3c(Cl)c4c5c(nc(OC[C@@]67CCCN6C[C@H](F)C7)nc5c3F)N3C(CO)CCC3CO4)c12 (stereo partly drawn) [compound 185, 2-amino-4-(6-chloro-4-fluoro-2-(((2R,7aS)-2-fluorotetrahydro-1H-pyrrolizin-7a(5H)-yl)methoxy)-11-(hydroxymethyl)-8a,9,10,11-tetrahydro-8H-pyrrolo[2′,1′:3,4][1,4]oxazepino[5,6,7-de]quinazolin-5-yl)-7-fluorobenzo[b]thiophene-3-carbonitrile]
IC50 (SW620 cells): < 5 µM
IC50 (K-Ras G12S): < 5 µM
IC50 (wildtype K-Ras): < 5 µM
IC50 (K-Ras G12D): < 5 µM
IC50 (A549 cells): < 5 µM
IC50 (GP2D cells): < 5 µM
IC50 (K-Ras G12V): < 5 µM

N#Cc1c(N)sc2c(F)ccc(-c3c(Cl)c4c5c(nc(OC[C@@]67CCCN6C[C@H](F)C7)nc5c3F)N3Cc5ccnn5CCC3CO4)c12 (stereo partly drawn) [compound 134, 2-amino-4-(3-chloro-1-fluoro-15-(((2R,7aS)-2-fluorotetrahydro-1H-pyrrolizin-7a(5H)-yl)methoxy)-5,5a,6,7-tetrahydro-12H-pyrazolo[5″,1″:3′,4′][1,4]diazepino[7′,1′:3,4][1,4]oxazepino[5,6,7-de]quinazolin-2-yl)-7-fluorobenzo[b]thiophene-3-carbonitrile]
IC50 (SW620 cells): < 5 µM
IC50 (K-Ras G12S): < 5 µM
IC50 (wildtype K-Ras): < 5 µM
IC50 (K-Ras G12D): < 5 µM
IC50 (A549 cells): < 5 µM
IC50 (GP2D cells): < 5 µM
IC50 (K-Ras G12V): < 5 µM

N#Cc1c(N)sc2c(F)ccc(-c3c(Cl)c4c5c(nc(OC[C@@]67CCCN6C[C@H](F)C7)nc5c3F)N3[C@H](CCO4)C[C@@H]4OCC[C@@H]43)c12 [compound 200, 2-amino-4-((6aR,7aS,10aS)-3-chloro-1-fluoro-13-(((2R,7aS)-2-fluorotetrahydro-1H-pyrrolizin-7a(5H)-yl)methoxy)-5,6,6a,7,7a,9,10,10a-octahydrofuro[2″,3″:4′,5′]pyrrolo[1′,2′:5,6][1,5]oxazocino[4,3,2-de]quinazolin-2-yl)-7-fluorobenzo[b]thiophene-3-carbonitrile]
IC50 (SW620 cells): < 5 µM
IC50 (K-Ras G12S): < 5 µM
IC50 (wildtype K-Ras): < 5 µM
IC50 (K-Ras G12D): < 5 µM
IC50 (A549 cells): < 5 µM
IC50 (GP2D cells): < 5 µM
IC50 (K-Ras G12V): < 5 µM

N#Cc1c(N)sc2c(F)ccc(-c3c(Cl)c4c5c(nc(OC[C@@]67CCCN6C[C@H](F)C7)nc5c3F)N3Cc5ccnn5CCC3CCO4)c12 (single isomer, unassigned) [compound 153]
IC50 (SW620 cells): < 5 µM
IC50 (K-Ras G12S): < 5 µM
IC50 (wildtype K-Ras): < 5 µM
IC50 (K-Ras G12D): < 5 µM
IC50 (A549 cells): < 5 µM
IC50 (GP2D cells): < 5 µM
IC50 (K-Ras G12V): < 5 µM

N#Cc1c(N)sc2c(F)ccc(-c3c(Cl)c4c5c(nc(OC[C@@]67CCCN6C[C@H](F)C7)nc5c3F)N3CC(F)(F)C[C@@H]3CO4)c12 [compound 176, 2-amino-4-((8aR)-6-chloro-4,10,10-trifluoro-2-(((2R,7aS)-2-fluorotetrahydro-1H-pyrrolizin-7a(5H)-yl)methoxy)-8a,9,10,11-tetrahydro-8H-pyrrolo[2′,1′:3,4][1,4]oxazepino[5,6,7-de]quinazolin-5-yl)-7-fluorobenzo[b]thiophene-3-carbonitrile]
IC50 (SW620 cells): < 5 µM
IC50 (K-Ras G12S): < 5 µM
IC50 (wildtype K-Ras): < 5 µM
IC50 (K-Ras G12D): < 5 µM
IC50 (A549 cells): < 5 µM
IC50 (GP2D cells): < 5 µM
IC50 (K-Ras G12V): < 5 µM

N#Cc1c(N)sc2c(F)ccc(-c3c(Cl)c4c5c(nc(OCC67CCCN6C[C@H](F)C7)nc5c3F)N3CCC(O)CC3CO4)c12 (stereo partly drawn) [compound 132, 2-amino-4-(3-chloro-1-fluoro-12-(((2R,7aS)-2-fluorotetrahydro-1H-pyrrolizin-7a(5H)-yl)methoxy)-7-hydroxy-5,5a,6,7,8,9-hexahydropyrido[2′,1′:3,4][1,4]oxazepino[5,6,7-de]quinazolin-2-yl)-7-fluorobenzo[b]thiophene-3-carbonitrile]
IC50 (SW620 cells): < 5 µM
IC50 (K-Ras G12S): < 5 µM
IC50 (wildtype K-Ras): < 5 µM
IC50 (K-Ras G12D): < 5 µM
IC50 (A549 cells): < 5 µM
IC50 (GP2D cells): < 5 µM
IC50 (K-Ras G12V): < 5 µM

CN1c2nc(OC[C@@]34CCCN3C[C@H](F)C4)nc3c(F)c(-c4ccc(F)c5sc(N)c(C#N)c45)c(Cl)c(c23)OC2CNCC21 (stereo partly drawn) [compound 214, 2-amino-4-(6-chloro-4-fluoro-2-(((2R,7aS)-2-fluorotetrahydro-1H-pyrrolizin-7a(5H)-yl)methoxy)-11-methyl-7a,8,9,10,10a,11-hexahydropyrrolo[3′,4′:2,3][1,4]oxazepino [5,6,7-de]quinazolin-5-yl)-7-fluorobenzo[b]thiophene-3-carbonitrile]
IC50 (SW620 cells): > 5 µM
IC50 (K-Ras G12S): < 5 µM
IC50 (wildtype K-Ras): < 5 µM
IC50 (K-Ras G12D): < 5 µM
IC50 (A549 cells): > 5 µM
IC50 (GP2D cells): > 5 µM
IC50 (K-Ras G12V): < 5 µM

N#Cc1c(N)sc2c(F)ccc(-c3c(Cl)c4c5c(nc(OC[C@@]67CCCN6C[C@H](F)C7)nc5c3F)N3CCCC(O)C3CO4)c12 (stereo partly drawn) [compound 157, 2-amino-4-(6-chloro-4-fluoro-2-(((2R,7aS)-2-fluorotetrahydro-1H-pyrrolizin-7a(5H)-yl)methoxy)-9-hydroxy-8,8a,9,10,11,12-hexahydropyrido[2′,1′:3,4][1,4]oxazepino [5,6,7-de]quinazolin-5-yl)-7-fluorobenzo[b]thiophene-3-carbonitrile]
IC50 (SW620 cells): < 5 µM
IC50 (K-Ras G12S): < 5 µM
IC50 (wildtype K-Ras): < 5 µM
IC50 (K-Ras G12D): < 5 µM
IC50 (A549 cells): < 5 µM
IC50 (GP2D cells): < 5 µM
IC50 (K-Ras G12V): < 5 µM

N#Cc1c(N)sc2c(F)ccc(-c3c(Cl)c4c5c(nc(OC[C@@]67CCCN6C[C@H](F)C7)nc5c3F)N3CCC3CO4)c12 (stereo partly drawn) [compound 178, 2-amino-4-(6-chloro-4-fluoro-2-(((2R,7aS)-2-fluorotetrahydro-1H-pyrrolizin-7a(5H)-yl)methoxy)-8,8a,9,10-tetrahydroazeto[2′,1′:3,4][1,4]oxazepino [5,6,7-de]quinazolin-5-yl)-7-fluorobenzo[b]thiophene-3-carbonitrile]
IC50 (SW620 cells): < 5 µM
IC50 (K-Ras G12S): < 5 µM
IC50 (wildtype K-Ras): < 5 µM
IC50 (K-Ras G12D): < 5 µM
IC50 (A549 cells): < 5 µM
IC50 (GP2D cells): < 5 µM
IC50 (K-Ras G12V): < 5 µM

N#Cc1c(N)sc2c(F)ccc(-c3c(Cl)c4c5c(nc(OC[C@@]67CCCN6C[C@H](F)C7)nc5c3F)N3C(CCCC3C(F)F)CO4)c12 (stereo partly drawn) [compound 189, 2-amino-4-(6-chloro-12-(difluoromethyl)-4-fluoro-2-(((2R,7aS)-2-fluorotetrahydro-1H-pyrrolizin-7a(5H)-yl)methoxy)-8,8a,9,10,11,12-hexahydropyrido[2′,1′:3,4][1,4]oxazepino [5,6,7-de]quinazolin-5-yl)-7-fluorobenzo[b]thiophene-3-carbonitrile]
IC50 (SW620 cells): < 5 µM
IC50 (K-Ras G12S): < 5 µM
IC50 (wildtype K-Ras): < 5 µM
IC50 (K-Ras G12D): < 5 µM
IC50 (A549 cells): < 5 µM
IC50 (GP2D cells): < 5 µM
IC50 (K-Ras G12V): < 5 µM

N#Cc1c(N)sc2c(F)ccc(-c3c(Cl)c4c5c(nc(OC[C@@]67CCCN6C[C@H](F)C7)nc5c3F)N(CC3CC3)C3COCC3CO4)c12 (stereo partly drawn) [compound 101, 2-amino-4-(6-chloro-12-(cyclopropylmethyl)-4-fluoro-2-(((2R,7aS)-2-fluorotetrahydro-1H-pyrrolizin-7a(5H)-yl)methoxy)-8a,9,11a,12-tetrahydro-8H,11H-furo[3′,4′:6,7][1,5]oxazocino[4,3,2-de]quinazolin-5-yl)-7-fluorobenzo[b]thiophene-3-carbonitrile]
IC50 (SW620 cells): < 5 µM
IC50 (K-Ras G12S): < 5 µM
IC50 (wildtype K-Ras): < 5 µM
IC50 (K-Ras G12D): < 5 µM
IC50 (A549 cells): < 5 µM
IC50 (GP2D cells): < 5 µM
IC50 (K-Ras G12V): < 5 µM
